These molecules were tested against T1, full-length beta-Catenin (Uniprot ID P35222) (Homo sapiens, UniProt P35222) (assay: Fluorescence polarization IC50 (beta-catenin / 5FAM-TCF4 10-53 competition)). Settings: fluorescence polarization; read-out: beta-Catenin FP IC50.
T1 construct: 10 nM full-length beta-Catenin (Uniprot ID P35222)
T1 sequence (P35222 1-781): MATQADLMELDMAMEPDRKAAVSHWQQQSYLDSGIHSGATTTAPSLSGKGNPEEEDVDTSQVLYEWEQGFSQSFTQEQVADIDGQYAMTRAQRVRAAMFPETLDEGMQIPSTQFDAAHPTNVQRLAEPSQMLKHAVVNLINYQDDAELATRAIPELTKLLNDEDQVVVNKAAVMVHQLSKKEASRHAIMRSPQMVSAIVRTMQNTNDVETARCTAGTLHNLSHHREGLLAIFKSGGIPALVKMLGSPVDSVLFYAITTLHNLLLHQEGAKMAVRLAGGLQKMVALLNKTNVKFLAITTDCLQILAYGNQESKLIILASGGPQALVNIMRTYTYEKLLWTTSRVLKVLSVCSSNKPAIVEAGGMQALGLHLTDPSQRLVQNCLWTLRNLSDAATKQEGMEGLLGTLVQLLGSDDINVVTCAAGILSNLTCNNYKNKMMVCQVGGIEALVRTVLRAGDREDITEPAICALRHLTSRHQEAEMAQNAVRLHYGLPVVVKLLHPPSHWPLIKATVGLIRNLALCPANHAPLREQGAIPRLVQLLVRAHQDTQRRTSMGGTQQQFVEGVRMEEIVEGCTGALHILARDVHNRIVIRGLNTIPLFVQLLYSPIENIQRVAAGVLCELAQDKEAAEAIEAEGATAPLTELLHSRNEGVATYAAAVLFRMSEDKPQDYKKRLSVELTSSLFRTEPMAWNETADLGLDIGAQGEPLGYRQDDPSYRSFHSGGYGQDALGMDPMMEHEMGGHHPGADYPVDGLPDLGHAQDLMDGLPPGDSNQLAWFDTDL
Format: binding

In order of falling IC50:
1. CC(=O)N1CCC[C@]12CC=CCCCC1(CCCC=CCCCOC(=O)N3CC[C@@](C(=O)N[C@@H](Cc4cccc(-c5ccccc5)c4)C(=O)N[C@@H](Cc4ccsc4)C(=O)N[C@@H](CCC(N)=O)C(N)=O)(C3)NC(=O)[C@H](CC(C)C)NC(=O)[C@H](Cc3ccccc3)NC(=O)[C@H](C)NC(=O)[C@H](C)NC(=O)[C@H](Cc3cccc(C(=O)O)c3)NC(=O)[C@H](CC(=O)O)NC1=O)NC(=O)[C@H](CC(C)(C)C)NC(=O)[C@H](CC(=O)O)NC2=O (stereo partly drawn) [I-2254, Ac-PL3-Asp-Npg-B5-Asp-3COOHF-Ala-Ala-Phe-Leu-PyrS2-[Ph]3SF-3Thi-Gln-NH2]  5790 nM
2. CC(=O)N1CCC[C@]12CC=CCCCC1(CCCC=CCCCOC(=O)N3CC[C@@](C(=O)N[C@@H](Cc4ccsc4)C(=O)N[C@@H](Cc4csc5ccccc45)C(=O)N[C@@H](CCC(N)=O)C(N)=O)(C3)NC(=O)[C@H](CC(N)=O)NC(=O)[C@H](Cc3ccccc3)NC(=O)[C@H](C)NC(=O)[C@H](C)NC(=O)[C@H](CC(=O)O)NC(=O)[C@H](CC(=O)O)NC1=O)NC(=O)[C@H](CC(C)(C)C)NC(=O)[C@H](Cn1cc(C(C)(C)C(=O)O)nn1)NC2=O (stereo partly drawn) [I-2330, Ac-PL3-[CMe2CO2H]TriAzDap-Npg-B5-Asp-Asp-Ala-Ala-Phe-Asn-PyrS2-3Thi-BztA-Gln-NH2]  3860 nM
3. CC(=O)N1CCC[C@]12CC=CCCCC1(CCCC=CCCCOC(=O)N3CC[C@@](C(=O)N[C@@H](Cc4ccccc4)C(=O)N[C@@H](Cc4csc5ccccc45)C(=O)N[C@@H](CCCCN)C(N)=O)(C3)NC(=O)[C@H](CC(C)C)NC(=O)[C@H](Cc3ccccc3)NC(=O)[C@H](C)NC(=O)[C@H](CC(N)=O)NC(=O)[C@H](CCC(N)=O)NC(=O)[C@H](CC(=O)O)NC1=O)NC(=O)[C@H](CC1CCCCC1)NC(=O)[C@H](CC(N)=O)NC2=O (stereo partly drawn) [I-2420, Ac-PL3-Asn-Cha-B5-Asp-Gln-Asn-Ala-Phe-Leu-PyrS2-Phe-BztA-Lys-NH2]  2120 nM
4. CC(=O)N1CCC[C@]12CC=CCCCC1(CCCC=CCCCOC(=O)N3CC[C@@](C(=O)N[C@@H](Cc4ccsc4)C(=O)N[C@@H](Cc4c[nH]c5ccccc45)C(=O)N[C@@H](CCC(N)=O)C(N)=O)(C3)NC(=O)[C@H](CC(N)=O)NC(=O)[C@H](Cc3ccccc3)NC(=O)[C@H](C)NC(=O)[C@H](C)NC(=O)[C@H]([C@@H](C)O)NC(=O)[C@H](CC(N)=O)NC1=O)NC(=O)[C@H](CC(C)(C)C)NC(=O)[C@H](CC(=O)O)NC2=O (stereo partly drawn) [I-1876, Ac-PL3-Asp-Npg-B5-Asn-Thr-Ala-Ala-Phe-Asn-PyrS2-3Thi-Trp-Gln-NH2]  1340 nM
5. CC(=O)N1CCC[C@]12CC=CCCCC1(CCCC=CCCCOC(=O)N3CC[C@@](C(=O)N[C@@H](Cc4ccsc4)C(=O)N[C@@H](Cc4csc5ccccc45)C(=O)N[C@@H](CCC(N)=O)C(N)=O)(C3)NC(=O)[C@H](CC(C)C)NC(=O)[C@H](Cn3cc(CN4CCOCC4)nn3)NC(=O)[C@H](C)NC(=O)[C@H](C)NC(=O)[C@H](CN(CC(=O)O)CC(F)(F)F)NC(=O)[C@H](CC(=O)O)NC1=O)NC(=O)[C@H](CC(C)(C)C)NC(=O)[C@H](CC(=O)O)NC2=O (stereo partly drawn) [I-1858, Ac-PL3-Asp-Npg-B5-Asp-TfeGA-Ala-Ala-[MorphCH2]TriAzDap-Leu-PyrS2-3Thi-BztA-Gln-NH2]  1110 nM
6. CC(C)C[C@H](NC(=O)[C@]12CCN(C1)C(=O)OCCCCCCCCC1(CCCCCCCC(=O)N3CCC[C@@]3(C)C(=O)N[C@@H](CC(=O)O)C(=O)N1)C(=O)N[C@@H](C)C(=O)N[C@@H](CC(=O)O)C(=O)N[C@@H](Cc1cccc(C(=O)O)c1)C(=O)N[C@@H](C)C(=O)N[C@@H](C)C(=O)N[C@@H](Cc1ccccc1)C(=O)N2)C(=O)N[C@@H](Cc1ccsc1)C(=O)N[C@@H](Cc1csc2ccccc12)C(=O)N[C@@H](CCC(N)=O)C(N)=O (stereo partly drawn) [I-2605, 4pentenyl-MePro-Asp-B5-Ala-Asp-3COOHF-Ala-Ala-Phe-PyrS2-Leu-3Thi-BztA-Gln-NH2]  608 nM
7. CC(=O)N1CCC[C@]12CCCCCCC1(CCCCCCCCOC(=O)N3CC[C@@](C(=O)N[C@@H](Cc4ccsc4)C(=O)N[C@@H](Cc4csc5ccccc45)C(=O)N[C@H](C(N)=O)C(C)C)(C3)NC(=O)[C@H](CC(C)C)NC(=O)[C@H](Cc3ccccc3)NC(=O)[C@H](C)NC(=O)[C@H](C)NC(=O)[C@H](CN(CC(=O)O)CC(F)(F)F)NC(=O)[C@H](CC(=O)O)NC1=O)NC(=O)[C@H](CC(C)(C)C)NC(=O)[C@H](CC(=O)O)NC2=O (stereo partly drawn) [I-1757, Ac-PL3-Asp-Npg-B5-Asp-TfeGA-Ala-Ala-Phe-Leu-PyrS2-3Thi-BztA-Val-NH2]  449 nM
8. CC(=O)N1CCC[C@]12CC=CCCCC1(CCCC=CCCCOC(=O)N3CC[C@@](C(=O)N[C@@H](Cc4ccsc4)C(=O)N[C@@H](Cc4csc5ccccc45)C(=O)N[C@@H](CCC(N)=O)C(N)=O)(C3)NC(=O)[C@H](CC(N)=O)NC(=O)[C@H](Cc3ccccc3)NC(=O)[C@H](C)NC(=O)[C@H](C)NC(=O)[C@H](CC(N)=O)NC(=O)[C@H](CCC(N)=O)NC1=O)NC(=O)[C@H](CC(C)(C)C)NC(=O)[C@H](CC(=O)O)NC2=O (stereo partly drawn) [I-1560, Ac-PL3-Asp-Npg-B5-Gln-Asn-Ala-Ala-Phe-Asn-PyrS2-3Thi-BztA-Gln-NH2]  368 nM
9. CC(=O)N1CCC[C@]12CC=CCCCC1(CCCC=CCCCOC(=O)N3CC[C@@](C(=O)N[C@@H](Cc4ccccc4)C(=O)N[C@@H](Cc4csc5ccccc45)C(=O)N[C@@H](CCO)C(N)=O)(C3)NC(=O)[C@H](CC(N)=O)NC(=O)[C@H](Cc3ccccc3)NC(=O)[C@H](C)NC(=O)[C@H](Cc3c[nH]cn3)NC(=O)[C@H](CCC(N)=O)NC(=O)[C@H](CC(=O)O)NC1=O)NC(=O)[C@H](CC1CCCCC1)NC(=O)[C@H](CC(N)=O)NC2=O (stereo partly drawn) [I-2066, Ac-PL3-Asn-Cha-B5-Asp-Gln-His-Ala-Phe-Asn-PyrS2-Phe-BztA-Hse-NH2]  357 nM
10. CC(=O)N1CCC[C@]12CCCCCCC1(CCCCCCCCOC(=O)N3CC[C@@](C(=O)N[C@@H](Cc4ccsc4)C(=O)N[C@@H](Cc4csc5ccccc45)C(=O)N[C@@H](Cc4ccccc4C(N)=O)C(N)=O)(C3)NC(=O)[C@H](CC(C)C)NC(=O)[C@H](Cc3ccccc3)NC(=O)[C@H](C)NC(=O)[C@H](C)NC(=O)[C@H](CN(CC(=O)O)CC(F)(F)F)NC(=O)[C@H](CC(=O)O)NC1=O)NC(=O)[C@H](CC(C)(C)C)NC(=O)[C@H](CC(=O)O)NC2=O (stereo partly drawn) [I-1717, Ac-PL3-Asp-Npg-B5-Asp-TfeGA-Ala-Ala-Phe-Leu-PyrS2-3Thi-BztA-2cbmf-NH2]  249 nM
11. CC(=O)N1CCC[C@]12CC=CCCCC1(CCCC=CCCCOC(=O)N3CC[C@@](C(=O)N[C@@H](Cc4ccsc4)C(=O)N[C@@H](Cc4csc5ccccc45)C(=O)N[C@@H](CC(N)=O)C(N)=O)(C3)NC(=O)[C@H](CC(N)=O)NC(=O)[C@H](Cc3ccccc3)NC(=O)[C@H](C)NC(=O)[C@H](C)NC(=O)[C@H]([C@@H](C)O)NC(=O)[C@H](CC(N)=O)NC1=O)NC(=O)[C@H](CC(C)(C)C)NC(=O)[C@H](CC(=O)O)NC2=O (stereo partly drawn) [I-1746, Ac-PL3-Asp-Npg-B5-Asn-Thr-Ala-Ala-Phe-Asn-PyrS2-3Thi-BztA-Asn-NH2]  235 nM
12. CC(=O)N1CCC[C@H]1C(=O)N[C@]1(C)CC=CCCCC2(CCCC=CCCCOC(=O)N3CC[C@@](C(=O)N[C@@H](Cc4ccccc4C(F)(F)F)C(=O)N[C@@H](Cc4csc5ccccc45)C(=O)N[C@@H](CCC(N)=O)C(N)=O)(C3)NC(=O)[C@H](CC(C)C)NC(=O)[C@H](Cc3ccccc3)NC(=O)[C@H](C)NC(=O)[C@H](C)NC(=O)[C@H](Cc3cccc(C(=O)O)c3)NC(=O)[C@H](CC(=O)O)NC2=O)NC(=O)[C@H](CC(C)(C)C)NC(=O)[C@H](CC(=O)O)NC1=O (stereo partly drawn) [I-2566, Ac-Pro-R3-Asp-Npg-B5-Asp-3COOHF-Ala-Ala-Phe-Leu-PyrS2-2F3MeF-BztA-Gln-NH2]  181 nM
13. CC(=O)N1CCC[C@]12CC=CCCCC1(CCCC=CCCCOC(=O)N3CC[C@@](C(=O)N[C@@H](Cc4ccsc4)C(=O)N[C@@H](Cc4csc5ccccc45)C(=O)N[C@@H](CCC(N)=O)C(N)=O)(C3)NC(=O)[C@H](CC(C)C)NC(=O)[C@H](Cc3ccccc3)NC(=O)[C@H](C)NC(=O)[C@H](C)NC(=O)[C@H](CC(=O)O)NC(=O)[C@H](CC(=O)O)NC1=O)NC(=O)[C@H](CCCCNC(=O)CC[C@@H](C)[C@H]1CC[C@H]3[C@@H]4CC[C@@H]5C[C@H](O)CC[C@]5(C)[C@H]4CC[C@]13C)NC(=O)[C@H](CC(=O)O)NC2=O (stereo partly drawn) [I-1469, Ac-PL3-Asp-[lithocholate]-Lys-B5-Asp-Asp-Ala-Ala-Phe-Leu-PyrS2-3Thi-BztA-Gln-NH2]  95 nM
14. CC(=O)N1CCC[C@]12CC=CCCCC1(CCCC=CCCCOC(=O)N3CC[C@@](C(=O)N[C@@H](Cc4ccsc4)C(=O)N[C@@H](Cc4csc5ccccc45)C(=O)N[C@@H](CCO)C(N)=O)(C3)NC(=O)[C@H](CC(C)C)NC(=O)[C@H](Cc3ccccc3)NC(=O)[C@H](C)NC(=O)[C@H](C)NC(=O)[C@H](CC(=O)O)NC(=O)[C@H](CC(=O)O)NC1=O)NC(=O)[C@H](CO)NC(=O)[C@H](CC(=O)O)NC2=O (stereo partly drawn) [I-1514, Ac-PL3-Asp-Ser-B5-Asp-Asp-Ala-Ala-Phe-Leu-PyrS2-3Thi-BztA-Hse-NH2]  27 nM
